This is an account of results in patent US10183917B2, “Tricyclic compounds and uses thereof in medicine” (Sunshine Lake Pharma Co., Ltd., priority 2015, dated 2019).

Series [1] has as its target nuclear receptor FXR recombinant protein (Homo sapiens (Human), UniProt Q96RI1). Kind of series: TR-FRET Farnesoid X Receptor Coactivator Assay. The class given is biochemical. The note with it: Fluorescein-SRC2-2, Tb anti-GST antibody, 1 h room temperature. As to the method: Example 36: TR-FRET Farnesoid X Receptor Coactivator Assay
Purchasing invitrogen PV4833 kits.
First, the required amount of the compound was weighed and dissolved in 100% DMSO at the maximum concentration of 3000 μM. The solution at the maximum concentration was diluted by 3-fold serial dilution in DMSO to get 10 concentrations;
Second, the above prepared solutions of different concentrations were diluted to 100-fold with a buffer supplied with the kit, followed by mixing and then 10 μL of the diluted solution was added to a 384 well plate;
Third, nuclear receptor FXR recombinant protein was diluted with a buffer to give a concentration of 4×, and 5 μL of the diluent was added to the 384 well plate of second step;
Fourth, Fluorescein-SRC2-2 and Tb anti-GST antibody were diluted with a buffer to give a concentration of 4× respectively. Then two reagents were mixed together, and 10 μL of the mixture was added to the 384 well plate of third step;
Finally, the solution of the 384 well above was mixed uniformly by centrifuging, and then incubated at room temperature for 1 h. Then the TR-FRET Endpoint was used for measuring the solution at wavelengths of 520 nm, 495 nm and 337 nm. EC50 values were calculated according to the measured value of ER=520 nm/495 nm.
For orientation: In TR-FRET formats the signal depends on donor and acceptor labels being close together.

Series [2] can be described thus: Pharmacokinetics test in SD rats (iv and po). The class given is in vivo. How it is done: Example 37: Pharmacokinetics Test
Experimental animals: six healthy adult male SD rats (purchased from Hunan Slack King of Laboratory Animal Co. Ltd.) were divided into two groups, three rats in each group, and the two grops were given intravenous injection and oral administration respectively.
Drug preparation: a quantity of a compound of the present invention was weighed, and 5% DMSO, 10% Kolliphor HS15 and 85% saline (0.9%) were added to give target concentrations of the compound solution.
Administration and sample collection: animals were fasting for 12 h until administered, eating 3 h after the administration. Hind legs of SD rats of one group were given intravenous injection (IV, 1 mg/kg) and SD rats of the other group were given oral administration (PO, 5 mg/kg) respectively. Then blood was collected in the rat tail vein at the time point 0, 0.083, 0.25, 0.5, 1, 2, 4, 6, 8, 24 h respectively, and the blood volume was about 200-400 μL/time points. After the collection of whole blood at each time point, the colleted blood was set in K2EDTA anticoagulant tube, and the tube was placed in the incubator with ice packs. All samples were centrifuged for 5 min at 4° C. at 4600 r/min within 15 min. Plasma was separated and colleted. The concentrations of different compounds in the plasma of the rats after adminstration were measured using LC/MS/MS method, and the pharmacokinetic parameters were calculated according to the curve of the drug concentration-time.
Pharmacokinetic properties of the compounds of the present invention were tested by the experiment above, and the pharmacokinetic parameters were shown in Table 3.

Setting [3] is: male, SD, rat, in vivo, iv, 1 mg/kg.
Where [4] appears, read: male, SD, rat, in vivo, po, 5 mg/kg.

Chain of nuclear receptor FXR recombinant protein (Q96RI1 258-486, other chains not shown): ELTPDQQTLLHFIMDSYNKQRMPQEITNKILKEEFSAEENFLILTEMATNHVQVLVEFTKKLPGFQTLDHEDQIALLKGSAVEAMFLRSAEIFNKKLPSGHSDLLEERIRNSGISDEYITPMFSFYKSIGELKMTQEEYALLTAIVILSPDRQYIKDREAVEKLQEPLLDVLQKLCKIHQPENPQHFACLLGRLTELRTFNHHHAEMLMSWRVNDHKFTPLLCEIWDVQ

Regarding `O=C(O)c1ccc2c(c1)Oc1ccc(OCc3c(-c4c(Cl)cccc4Cl)noc3C3CC3)cc1CC2` [Example 1, 8-((5-cyclopropyl-3-(2,6-dichlorophenyl)isoxazol-4-yl)methoxy)-10,11-dihydrodibenzo[b,f]oxepine-3-carboxylic acid], in series [1], the EC50 (as a rule, the concentration needed to bring the measured effect to its halfway point) amounted to 18 nM.

`O=C(O)c1ccc2c(c1)C(=O)c1ccc(OCc3c(-c4c(Cl)cccc4Cl)noc3C3CC3)cc1CC2` [Example 2, 8-((5-cyclopropyl-3-(2,6-dichlorophenyl)isoxazol-4-yl)methoxy)-5-oxo-10,11-dihydro-5H-dibenzo[a,d][7]annulene-3-carboxylic acid]: the EC50 in series [1] is 4 nM. In addition, in series [2] (male SD rats, iv 1 mg/kg), the AUCINF turned out to be 1210 ng·h/mL; the AUClast is 1180 ng·h/mL; the Cl stood at 14 mL/min/kg; the Cmax – broadly, the highest concentration seen after dosing – is 2560 ng/mL. Moreover, in series [2] (male SD rats, iv 1 mg/kg), the MRTINF amounted to 63 min, the T1/2 stood at 109 min, the Tmax (usually the time at which the peak concentration occurs) stood at 4.8 min and the Vss was 0.86 L/kg. Further, in series [2] (male SD rats, po 5 mg/kg), the AUCINF was found to be 11300 ng·h/mL, the AUClast worked out at 11200 ng·h/mL, the Cmax was 9970 ng/mL and the MRTINF worked out at 141 min. In series [2] (male SD rats, po 5 mg/kg), the T1/2 was 250 min and the Tmax is 19.8 min. In addition, the F in series [2] (male SD rats, po 5 mg/kg vs iv 1 mg/kg) is 189.7%.

With `O=C(O)c1ccc2c(c1)Oc1ccc(OCc3c(-c4c(Cl)cccc4Cl)noc3C3CC3)nc1CC2` [Example 3, 2-((5-cyclopropyl-3-(2,6-dichlorophenyl)isoxazol-4-yl)methoxy)-10,11-dihydrobenzo[6,7]oxepino[3,2-b]pyridine-7-carboxylic acid], the EC50 in series [1] was 37 nM.

As for `O=C(O)c1ccc2c(c1)Oc1cnc(OCc3c(-c4c(Cl)cccc4Cl)noc3C3CC3)cc1CC2` [Example 4, 3-((5-cyclopropyl-3-(2,6-dichlorophenyl)isoxazol-4-yl)methoxy)-5,6-dihydrobenzo[6,7]oxepino[2,3-c]pyridine-9-carboxylic acid], the EC50 in series [1] turned out to be 46 nM. In series [2] (male, SD, rat, in vivo), this compound showed an F of 44.7%. Moreover, in series [2] (setting [3]), the AUC(0-inf) (as a rule, total exposure, with the tail of the curve extrapolated) stood at 878 ng·h/mL; the AUC(0-t) – broadly, exposure summed from dosing to a finite time, without extrapolation to infinity – turned out to be 877 ng·h/mL; the highest level (Cmax) was 1900 ng/mL; the MRT inf (in general, the average time that molecules of a dose stay in the body) was 24 min. In series [2] (setting [3]), the Tmax came out at 4.8 min, the Vd worked out at 0.45 L/kg, the clearance amounted to 19 mL/min/kg and the half-life (commonly the time in which the quantity being followed falls by half) is 30 min. In series [2] (setting [4]), the AUC(0-inf) was 1980 ng·h/mL, the AUC(0-t) is 1960 ng·h/mL, the Cmax was 1800 ng/mL and the mean residence time (MRT inf) came out at 82.2 min. Also, in series [2] (setting [4]), the Tmax worked out at 19.8 min and the half-life was 294 min.

Turning to `O=C(O)c1ccc2c(c1)Oc1ccc(OCc3c(-c4c(Cl)cccc4Cl)noc3C3CC3)cc1S(=O)(=O)C2` [Example 5, 8-((5-cyclopropyl-3-(2,6-dichlorophenyl)isoxazol-4-yl)methoxy)-11H-dibenzo[b,f][1,4]oxathiepine-3-carboxylic acid-10,10-dioxide], in series [1], the EC50 worked out at 6 nM. In addition, the F in series [2] (male, SD, rat, in vivo) is recorded as 62.6%. In series [2] (setting [3]), the AUC(0-inf) stood at 941 ng·h/mL, the AUC(0-t) turned out to be 926 ng·h/mL, the Cmax is 2420 ng/mL and the MRT inf stood at 45.6 min. In addition, in series [2] (setting [3]), the Tmax was found to be 4.8 min, the Vd came to 0.82 L/kg, the clearance was found to be 18 mL/min/kg and the half-life is 93.6 min. Besides, in series [2] (setting [4]), the AUC(0-inf) is 3350 ng·h/mL, the AUC(0-t) was determined as 2900 ng·h/mL, the concentration peaked (Cmax) at 1300 ng/mL and the MRT inf was found to be 514 min. For the same compound, in series [2] (setting [4]), the Tmax was found to be 19.8 min and the half-life is 702 min.

`O=C(O)c1ccc2c(c1)Oc1ccc(OCc3c(-c4c(Cl)cccc4Cl)noc3C3CC3)cc1SC2` [Example 6, 8-((5-cyclopropyl-3-(2,6-dichlorophenyl)isoxazol-4-yl)methoxy)-11H-dibenzo [b,f][1,4]oxathiepine-3-carboxylic acid]: the EC50 in series [1] amounted to 55 nM.

As to `O=C(O)c1ccc2c(c1)Oc1ccc(OCc3c(-c4c(Cl)cccc4Cl)noc3C3CC3)cc1[S+]([O-])C2` (centres unmarked) [Example 7, 8-((5-cyclopropyl-3-(2,6-dichlorophenyl)isoxazol-4-yl)methoxy)-11H-dibenzo [b,f][1,4]oxathiepine-3-carboxylic acid-10-oxide], in series [1], the EC50 came to 15 nM.

As for `O=C(O)c1ccc2c(c1)C1(CC1)c1ccc(OCc3c(-c4c(Cl)cccc4Cl)noc3C3CC3)cc1CC2` [Example 9, 2′-((5-cyclopropyl-3-(2,6-dichlorophenyl)isoxazol-4-yl)methoxy)-10′,11′-dihydrospiro[cyclopropane-1,5′-dibenzo[a,d][7]annulene]-7′-carboxylic acid], in series [1], the EC50 came out at 38 nM.

As for `O=C(O)c1ccc2c(c1)S(=O)(=O)c1ccc(OCc3c(-c4c(Cl)cccc4Cl)noc3C3CC3)cc1CC2` [Example 11, 8-((5-cyclopropyl-3-(2,6-dichlorophenyl)isoxazol-4-yl)methoxy)-10,11-dihydrodibenzo[b,f]thiepine-3-carboxylic acid-5,5-dioxide], the EC50 in series [1] was found to be 56 nM.

For `O=C(O)c1ccc2c(c1)CCc1ccc(OCc3c(-c4c(Cl)cccc4Cl)noc3C3CC3)cc1O2` [Example 15, 7-((5-cyclopropyl-3-(2,6-dichlorophenyl)isoxazol-4-yl)methoxy)-10,11-dihydrodibenzo[b,f]oxepine-2-carboxylic acid], the EC50 in series [1] was determined as 35 nM.

As to `CS(=O)(=O)NC(=O)c1ccc2c(c1)Oc1ccc(OCc3c(-c4c(Cl)cccc4Cl)noc3C3CC3)nc1CC2` [Example 19, 2-((5-cyclopropyl-3-(2,6-dichlorophenyl)isoxazol-4-yl)methoxy)-N-(methylsulfonyl)-10,11-dihydrobenzo[6,7]oxepino[3,2-b]pyridine-7-carboxamide], the EC50 in series [1] was determined as 6 nM.

Take `CC(C)c1nnn(-c2c(Cl)cccc2Cl)c1COc1ccc2c(c1)CCc1ccc(C(=O)O)cc1C2=O` [Example 27, 8-((1-(2,6-dichlorophenyl)-4-isopropyl-1H-1,2,3-triazol-5-yl)methoxy)-5-oxo-10,11-dihydro-5H-dibenzo[a,d][7]annulene-3-carboxylic acid]: the EC50 in series [1] was found to be 12 nM.

`O=C(NCCS(=O)(=O)O)c1ccc2c(c1)Oc1ccc(OCc3c(-c4c(Cl)cccc4Cl)noc3C3CC3)nc1CC2` [Example 29, 2-(2-((5-cyclopropyl-3-(2,6-dichlorophenyl)isoxazol-4-yl)methoxy)-10,11-dihydrobenzo[6,7]oxepino[3,2-b]pyridine-7-carboxamido)ethanesulfonic acid]: the EC50 in series [1] came out at 11 nM.

On to `O=C(O)c1ccc2c(c1)Oc1ccc(OCc3c(-c4c(Cl)cccc4Cl)noc3C3CC3)nc1C=C2` [Example 30, 2-((5-cyclopropyl-3-(2,6-dichlorophenyl)isoxazol-4-yl)methoxy)benzo[6,7]oxepino[3,2-b]pyridine-7-carboxylic acid], for which, in series [1], the EC50 worked out at 27 nM.

For the compound `O=C(O)c1ccc2c(c1)Oc1ccc(OCc3c(-c4c(Cl)cccc4Cl)noc3C3CC3)nc1CCC2` [Example 31, 3-((5-cyclopropyl-3-(2,6-dichlorophenyl)isoxazol-4-yl)methoxy)-6,7-dihydro-5H-benzo[7,8]oxocino[3,2-b]pyridine-10-carboxylic acid], in series [1], the EC50 is 56 nM.

Take `CS(=O)(=O)c1ccc2c(c1)Oc1ccc(OCc3c(-c4c(Cl)cccc4Cl)noc3C3CC3)nc1CC2` [Example 32, 2-((5-cyclopropyl-3-(2,6-dichlorophenyl)isoxazol-4-yl)methoxy)-7-(methylsulfonyl)-10,11-dihydrobenzo[6,7]oxepino[3,2-b]pyridine]: the EC50 in series [1] was 54 nM.

For the compound `O=C(O)c1cnc2c(c1)Oc1cnc(OCc3c(-c4c(Cl)cccc4Cl)noc3C3CC3)cc1CC2` [Example 33, 8-((5-cyclopropyl-3-(2,6-dichlorophenyl)isoxazol-4-yl)methoxy)-10,11-dihydrooxepino[3,2-b:7,6-c′]dipyridine-3-carboxylic acid], the EC50 in series [1] is 18 nM.
